pIC50: −log10 of the molar value. Read-outs that look alike come from different tables or passages of the source.
Assays:
[1] = biological target: HIV-1 RT (Human immunodeficiency virus type 1 group M subtype B, UniProt P03366); assay: Heteropolymer HIV Reverse Transcriptase Assay: Inhibitor IC50 Determination; assay type: biochemical
Procedure: Heteropolymer HIV Reverse Transcriptase Assay: Inhibitor IC50 Determination
HIV-1 RT assay was carried out in 96-well Millipore MultiScreen MADVNOB50 plates using purified recombinant enzyme and a poly(rA)/oligo(dT)16 template-primer in a total volume of 50 μL. The assay constituents were 50 mM Tris/HCl, 50 mM NaCl, 1 mM EDTA, 6 mM MgCl2, 5 μM dTTP, 0.15 μCi [^3H] dTTP, 5 μg/ml poly (rA) pre annealed to 2.5 μg/ml oligo (dT)16 and a range of inhibitor concentrations in a final concentration of 10% DMSO. Reactions were initiated by adding 4 nM HIV-1 RT and after incubation at 37° C. for 30 min, they were stopped by the addition of 50 μl ice cold 20% TCA and allowed to precipitate at 4° C. for 30 min. The precipitates were collected by applying vacuum to the plate and sequentially washing with 3×200 μl of 10% TCA and 2×200 μl 70% ethanol. Finally, the plates were dried and radioactivity counted in a Packard TopCounter after the addition of 25 μl scintillation fluid per well. IC50's were calculated by plotting % inhibition versus log10 inhibitor concentrations. Representative IC50 data is depicted in TABLE 2.

[2] = tested on: HXB2-strain of HIV-1 in MT4 cells; assay: Antiviral assay: protection of HIV-1-infected MT4 cells from cell death (MTT); assay type: cell-based
Procedure: Anti-HIV-1 antiviral activity was assessed using an adaptation of the method of Pauwels et al. (Pauwels et al., J Virol Methods 1988 20:309-321). The method is based on the ability of compounds to protect HIV-1-infected T lymphoblastoid cells (MT4 cells) from cell-death mediated by the infection. The endpoint of the assay was calculated as the concentration of compound at which the cell viability of the culture was preserved by 50% (‘50% inhibitory concentration’, IC50). The cell viability of a culture was determined by the uptake of soluble, yellow 3-[4,5-dimethylthiazol-2-yl]-2,5-diphenyltetrazolium bromide (MTT) and its reduction to a purple insoluble formazan salt. After solubilization, spectrophotometric methods were employed to measure the amount of formazan product.
MT4 cells were prepared to be in logarithmic-phase growth and a total of 2×10^6 cells infected with the HXB2-strain of HIV-1 at a multiplicity of 0.0001 infectious units of virus per cell in a total volume of between 200-500 microliters. The cells were incubated with virus for one hour at 37° C. before removal of virus. The cells are then washed in 0.01 M phosphate buffered saline, pH 7.2 before being resuspensed in culture medium for incubation in culture with serial dilutions of test compound. The culture medium used was RPMI 1640 without phenol red, supplemented with penicillin, streptomycin, L-glutamine and 10% fetal calf serum (GM10).
Test compounds were prepared as 2 mM solutions in dimethyl sulfoxide (DMSO). Four replicate, serial 2-fold dilutions in GM10 were then prepared and 50 microliters amounts placed in 96-well plates over a final nanomolar concentration range of 625-1.22. Fifty microliters GM10 and 3.5×10^4 infected cells were then added to each well. Control cultures containing no cells (blank), uninfected cells (100% viability; 4 replicates) and infected cells without compound (total virus-mediated cell death; 4 replicates) were also prepared. The cultures were then incubated at 37° C. in a humidified atmosphere of 5% CO2 in air for 5 days.
A fresh solution of 5 mg/mL MTT was prepared in 0.01 M phosphate buffered saline, pH 7.2 and 20 microliters added to each culture. The cultures were further incubated as before for 2 hours. They were then mixed by pipetting up and down and 170 microliters of Triton X-100 in acidified isopropanol (10% v/v Triton X-100 in 1:250 mixture of concentrated HCl in isopropanol). When the formazan deposit was fully solubilized by further mixing, the absorbance (OD) of the cultures was measured at 540 nm and 690 nm wavelength (690 nm readings were used as blanks for artifacts between wells). The percent protection for each treated culture was then calculated from the equation: […]
The IC50 can be obtained from graph plots of percent protection versus log10 drug concentration.

[3] = purified recombinant enzyme, poly(rA)/oligo(dT)16 template-primer, read-out: Polymerase Inhibition IC50
[4] = Human immunodeficiency virus 1, HXB2, MT4, read-out: IC50 Antiviral wt:fbs:10%
[5] = Human immunodeficiency virus 1, HXB2, wild type virus, MT4 cells, 10% fetal calf serum, read-out: IC50 Antiviral wt:fbs:10%

N#Cc1cc(Cl)cc(Oc2cc(CCc3nc4ccccc4o3)[nH]c(=O)c2Cl)c1 [Compound I-19, 3-[6-(2-Benzooxazol-2-yl-ethyl)-3-chloro-2-oxo-1,2-dihydro-pyridin-4-yloxy]-5-chloro-benzonitrile]
pIC50 [1, 3]: 8.20 | pIC50 [2, 4]: 8.16

N#Cc1cc(Cl)cc(Oc2c(F)c(CCc3ccncc3)[nH]c(=O)c2Br)c1 [Compound I-20, 3-[3-Bromo-5-fluoro-2-oxo-6-(2-pyridin-4-yl-ethyl)-1,2-dihydro-pyridin-4-yloxy]-5-chloro-benzonitrile]
pIC50 [1, 3]: 8.82 | pIC50 [2, 4]: 8.36

C=Cc1c(Oc2cc(Cl)cc(C#N)c2)c(CC)c[nH]c1=O [II-3, 3-Chloro-5-(5-ethyl-2-oxo-3-vinyl-1,2-dihydro-pyridin-4-yloxy)-benzonitrile]
pIC50 [1, 3]: 8.25 | pIC50 [2, 5]: 8.48

CCc1c(C)[nH]c(=O)c(Br)c1Oc1cc(Cl)cc(C#N)c1 [II-6, 3-(3-Bromo-5-ethyl-6-methyl-2-oxo-1,2-dihydro-pyridin-4-yloxy)-5-chloro-benzonitrile]
pIC50 [1, 3]: 8.14 | pIC50 [2, 5]: 8.62

N#Cc1cc(Cl)cc(Oc2c(CSCc3ccccc3)c[nH]c(=O)c2Br)c1 [II-18, 3-(5-Benzylsulfanylmethyl-3-bromo-2-oxo-1,2-dihydro-pyridin-4-yloxy)-5-chloro-benzonitrile]
pIC50 [1]: 9.40 | pIC50 [2, 5]: 8.38
